US8785655B2, “Ionic liquid solvents” (Dublin City University, priority 2009, dated 2014)
Where a name gives a salt, the structure may show the parent alone. Read-outs that look alike come from different tables or passages of the source.

Key:
Assay in all cases: Toxicity of pyridinium CILs, IC50 against bacteria strains
Type in all cases: cell-based
Conditions in all cases: read-out: IC50 values
Escherichia Coli = test system: Escherichia Coli
Description: (§1) KG 2013 and KG 2015 screened against 5 bacteria strains: Pseudomonas Putida (CP1), Pseudomonas Putida (KT2440), Escherichia Coli, Bacillus Subtilis, and Pseudomonas Fluorescens. KG 1043 screened against 4 strains Pseudomonas Putida (CP1), Pseudomonas Putida (KT2440), Escherichia Coli, and Pseudomonas Fluorescens. All 3 pyridinium ionic liquids have low antimicrobial toxicity (IC50>1 mM).

[1] = test system: Pseudomonas Putida (KT2440)
Description: as §1

Pseudomonas Fluorescens = test system: Pseudomonas Fluorescens
Description: as §1

Pseudomonas Putida (CP1) = test system: Pseudomonas Putida (CP1)
Description: as §1

Bacillus Subtilis = test system: Bacillus Subtilis
Description: as §1

Measured: IC50

CCCCOC(=O)C(OC(=O)C[n+]1ccccc1)c1ccc2c(c1)OCO2 (centres unmarked) [KG 1043, RS-[1-(butoxycarbonyl)-1-(3,4-methylenedioxyphenyl)methoxycarbonylmethyl]pyridinium bromide]
> 1000 µM: Escherichia Coli; E. Coli | [1]; P. Putida (KT2440) | Pseudomonas Fluorescens; P. Fluorescens | Pseudomonas Putida (CP1); P. Putida (CP1)

COC(=O)C(c1ccc(OC)c(OC)c1)[n+]1ccccc1 (centres unmarked) [KG 2013, RS-2-(3,4-dimethoxyphenyl)-2-(pyridinium) methyl acetate, chloride salt]
> 1000 µM: Escherichia Coli; Escherichia coli | Bacillus Subtilis; Bacillus subtilis | [1]; Pseudomonas putida | Pseudomonas Fluorescens; Pseudomonas fluorescens | Pseudomonas Putida (CP1); Pseudomonas putida

COC(=O)C(c1ccc2c(c1)OCO2)[n+]1ccccc1 (centres unmarked) [KG 2015, RS-2-(3,4-methylendioxyphenyl)-2-(pyridinium) methyl acetate, bromide salt]
> 1000 µM: Escherichia Coli; E. Coli | Bacillus Subtilis; B. Subtilis | [1]; P. Putida (KT2440) | Pseudomonas Fluorescens; P. Fluorescens | Pseudomonas Putida (CP1); P. Putida (CP1)
